Experimental data from US4952493A, “Peptide substrates for detecting virus-specified protease activity” (priority 1987, dated 1990).
Values joined by “and” are separate entries in the source; they are usually repeats but may differ in a detail not shown here. Equal entries are not always repeated. Numbered stars: 1 amine (or outer) side, 2 acyl side, 3 side chain; on linkers, the order of the positions; unused ones are H or OH. Peptide text beside a SMILES is read from it. * marks the point of attachment. AMC = Cc1cc(=O)oc2cc(N*)ccc12; Suc = O=C(CCC(=O)[*:2])[*:1]

System: virus-specified protease activity in extracts of Poliovirus Type 2 infected HeLa-O cells
Assay type: biochemical
Details: pH 5

## Cc1cc(=O)oc2cc(NC(=O)[C@H](CCC(N)=O)NC(=O)[C@H](CC(C)C)NC(=O)CNC(=O)[C@H](Cc3ccccc3)NC(=O)CCC(=O)O)ccc12 [Suc-Phe-Gly-Leu-Gln-AMC] (Suc-FGLQ-{AMC})
  Protease Activity, AMC Substrate: 22.5 and 11.4
